Source: patent US20230220021A1, “CYCLIC PEPTIDE INHIBITORS OF PSD-95 AND USES THEREOF” (University of Copenhagen, priority 2020, published 2023)
Blank lines part the entries; values can stand above or below the compound they belong to. Where a SMILES comes first, the peptide text is derived from it. [ ]: non-standard residue; d: D form. The star is where a group is joined. 5TAMRA = CN(C)c1ccc2c(c1)Oc1cc(N(C)C)ccc1C21OC(=O)c2cc(C(=O)*)ccc21

Legend:
[1] = target: T1, PSD-95-PDZ2 H225A (Homo sapiens, UniProt P78352, H225A); assay: FP saturation assay against PSD-95-PDZ2 Ala mutant H225A; format: binding; conditions: H225A mutation; TAMRA probes
T1 construct: measured against recombinantly expressed PSD-95-PDZ2 Ala mutants in FP saturation experiments; 7xHis (N); made in house; host or cells: Escherichia coli B21 pLys
Source text: (§1) Protein expression. The pRSET plasmids encoding the (7× His)-PSD-95-PDZ2 wild type and (7× His)-PSD-95-PDZ2-V178C sequences were obtained as described previously.^38 The DNA constructs encoding the PSD-95-PDZ2 mutants (K165A, K168A, F172A, F1721, S173A, N180A, T192A, K193A, H225A, E226A, V229A K233A) were produced using Phusion® site-directed mutagenesis kit on the pRSET plasmid of the wild type PSD-95-PDZ2 and with the primers listed in Table 1. The PSD-95-PDZ2 mutants were transformed and expressed as previously described,^38 in Escherichia coli B21 pLys cells at 37° C. and 0.5 mM isopropyl-D-thiogalactopyranoside (IPTG). […] Protein concentration was measured by NanoDrop 1000 and mass determination of proteins was analyzed using an Agilent 6410 triple quadrupole LC-MS with a Poroshell column, 300SB-C18 2.1×75 mm in a linear gradient of 5% to 60% B, using a binary solvent system [A: H2O/MeCN/TFA, 94.9/5/0.1 and B: H2O/MeCN/TFA, 5/94.9/0.1] with a flow of 0.75 mL min^−1. […] The proteins were analyzed using the following gradient: from 5% to 60% B for 4 min. and from 60 to 100% B from 4 to 4.5 min.
(§2) Fluorescence polarization (FP). […] Fluorescence polarization was measured using a Safire 2 plate reader. […] Then, the polarization was fitted into a one-site binding model using Prism software 8.0 (GraphPad), from which the Kd can be measured. […]

[2] = target: T2, PSD-95-PDZ2 V229A (Homo sapiens, UniProt P78352, V229A); assay: FP saturation assay against PSD-95-PDZ2 Ala mutant V229A; format: binding; conditions: V229A mutation; TAMRA probes
T2 construct: measured against recombinantly expressed PSD-95-PDZ2 Ala mutants in FP saturation experiments; 7xHis (N); made in house; host or cells: Escherichia coli B21 pLys
Source text: as §1, §2

[3] = target: T3, PSD-95-PDZ2 K165A (Homo sapiens, UniProt P78352, K165A); assay: FP saturation assay against PSD-95-PDZ2 Ala mutant K165A; format: binding; conditions: K165 mutation; TAMRA probes
T3 construct: measured against recombinantly expressed PSD-95-PDZ2 Ala mutants in FP saturation experiments; 7xHis (N); made in house; host or cells: Escherichia coli B21 pLys
Source text: as §1, §2

[4] = target: T4, PSD-95-PDZ2 (Homo sapiens, UniProt P78352); assay: Isothermal titration calorimetry (ITC); format: binding; conditions: ITC, 25° C.
T4 construct: 7xHis (N); made in house; host or cells: Escherichia coli B21 pLys (for the mutants, 'as previously described')
Experimental: Isothermal titration calorimetry (ITC). The ITC assays were performed in NaPi 50 nM, 50 nM NaCl, pH 7.2 buffer filtered with a Corning® bottle-top vacuum filter system of a pore size of 0.22 μM, that was used to dissolve the peptides. Proteins were dialyzed against this buffer using Amicon® Ultra-15 centrifugal filter units, with a MWCO 3000 Da.
This assay was performed on an ITC200. The instrument differential power (DP) was set to 10 and the syringe rotating speed to 600 RPM. The assay setup consisted of introducing the protein inside the cell and the peptide (titrant) on the syringe. Calorimetry was performed at 25° C. Each analysis was performed in triplicates. Furthermore, several runs of peptide into buffer were performed in order to remove injection residual heat. Runs were analyzed with Origin 7.0 software (OriginLab).

[5] = target: plasmin (Homo sapiens, UniProt P00747); assay: In vitro plasmin stability; format: in vitro ADME; conditions: 100 μM ligand, PBS with plasmin (10 μg/mL), 37° C., 0 to 360 minutes, mean n=3
Experimental: The in vitro plasmin stability of peptides with SEQ ID NOs: 12, 68, 99 and 163 were determined by incubating 100 μM of ligand in phosphate buffered saline (PBS) supplemented with plasmin (10 μg/mL) at 37° C. for 0 to 360 minutes. At selected time points during the incubation, the ligands were extracted from 80 μL of assay matrix by treatment with 80 μL of 50% acetonitrile (ACN). The samples were filtered and analysed by UPLC to determine the amount of ligand remaining. LC-MS analysis was performed to confirm ligand integrity and identify cleavage sites.

[6] = target: T4, PSD-95-PDZ2; assay: Fluorescence polarization (FP) competition assay against cyclic nNOS TAMRA probe; format: binding; conditions: for Ki: FP competition, cyclic nNOS TAMRA probe, mean of triplicates, N.B. = not binding, read-out: Ki
Experimental: Fluorescence polarization (FP). FP assays were performed in a 384-well plate format. Fluorescence polarization was measured using a Safire 2 plate reader. The instrument Z-factor was optimized for each assay. The G-factor was calibrated to an initial milli polarization value of 20. The wavelength for the cyclic nNOS β-hairpin TAMRA probe was: ex: 530 nm and em: 580 nm. Every measurement was performed in NaPI 50 mM, 50 mM NaCl and 1% BSA at pH 7.2, 25° C. […] The curves were done in triplicates. Then, the polarization was fitted into a one-site binding model using Prism software 8.0 (GraphPad), from which the Kd can be measured. […] The mili polarization (mP) values were plotted as a function of peptide concentration and fitted to a sigmoidal dose-response curve using Prism software 8.0 (GraphPad). The Ki values were calculated according to Nikolovska-Coleska Z. et al.^40-41

[7] = target: T5, PSD-95-PDZ2 (Homo sapiens, UniProt P78352, V178C); assay: SPOT peptide array screening with TAMRA labelled PSD-95-PDZ2; format: binding; conditions: SPOT array, TAMRA labelled PSD-95-PDZ2-V178C, normalized to WT
T5 construct: screened with the TAMRA labelled PSD-95-PDZ2-V178C domain; 7xHis (N); made in house
In short: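 First, arrays were blocked 1 h and scanned to record background. Next, 50 nM labelled PDZ2-V178C in PBS pH 7.2 with 0.5% BSA bound for 1 h protected from light. Finally, after washes, 532 nm fluorescence was measured and background-corrected.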

[8] = system: HeLa cells stably expressing HaloGFP
Source text: To assess the cellular permeability and delivery to the cytosol of the compounds as defined herein, the cellular chloroalkane penetration assay (CAPA) may be used (Peraro et al. 2018). This assay takes advantage of a modified haloalkane dehalogenase designed to covalently bind chloroalkane (CA) molecules. A HeLa cell line expressing a fusion protein comprising a HaloTag, a green fluorescent protein (GFP) and a mitochondria-targeting peptide is used to report cytosolic delivery. […] Cells expressing the HaloTag enzyme are incubated with CA-tagged peptides. When these CA-peptides penetrate the cell membrane and reach the cytosol, they will bind to and react with the HaloTag (pulse step). Following a washing step, the cells are incubated with a CA-tagged dye that quantitatively penetrates the cell membrane and reacts with remaining unreacted HaloTag sites (chase step). Flow cytometry is used to measure the fluorescence intensity of the cells and the measured fluorescence is inversely proportional to the amount of CA-peptides that reach the penetrated the cells and can thus be used to assess cytosolic delivery. The obtained data is commonly expressed as CP50 values, the concentration at which 50% cell penetration is observed. […]

[9] = plasmin (10 μg/mL) in phosphate buffered saline

plasmin, sequence (P00747 581-810 limits assumed, species assumed): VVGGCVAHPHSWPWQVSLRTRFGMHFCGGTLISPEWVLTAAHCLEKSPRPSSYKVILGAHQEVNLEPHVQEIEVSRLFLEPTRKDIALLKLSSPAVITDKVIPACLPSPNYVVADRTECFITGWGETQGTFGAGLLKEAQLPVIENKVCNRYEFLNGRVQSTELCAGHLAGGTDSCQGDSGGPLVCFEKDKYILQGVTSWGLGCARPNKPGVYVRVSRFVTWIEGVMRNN
plasmin, sequence (P00747 97-580 partner limits assumed, species assumed): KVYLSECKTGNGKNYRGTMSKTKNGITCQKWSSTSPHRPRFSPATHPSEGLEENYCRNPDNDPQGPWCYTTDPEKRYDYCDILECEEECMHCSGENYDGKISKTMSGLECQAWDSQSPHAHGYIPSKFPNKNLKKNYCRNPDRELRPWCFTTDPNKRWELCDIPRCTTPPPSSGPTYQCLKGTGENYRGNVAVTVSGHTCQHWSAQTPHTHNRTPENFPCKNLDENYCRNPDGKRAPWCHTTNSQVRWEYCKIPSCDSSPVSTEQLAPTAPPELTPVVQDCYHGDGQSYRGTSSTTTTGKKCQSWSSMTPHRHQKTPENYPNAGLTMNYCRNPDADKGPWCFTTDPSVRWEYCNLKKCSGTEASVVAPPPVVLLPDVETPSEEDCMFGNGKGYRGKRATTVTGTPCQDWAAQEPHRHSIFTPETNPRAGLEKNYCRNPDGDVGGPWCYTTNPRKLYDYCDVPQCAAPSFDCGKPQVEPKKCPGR

Compound: CC[C@H](C)[C@H](NC(=O)[C@H](CO)NC(=O)[C@H](CO)NC(=O)[C@H](CC(C)C)NC(=O)[C@H](CCCCN)NC(=O)c1ccc2c(c1)C(=O)OC21c2ccc(N(C)C)cc2Oc2cc(N(C)C)ccc21)C(=O)N[C@@H](CCC(=O)O)C(=O)N[C@@H](CO)C(=O)N[C@@H](CC(=O)O)C(=O)N[C@H](C(=O)O)C(C)C [C-terminal GluN2B TAM RA probe] (5TAMRA-KLSSIESDV-OH; N-terminus assumed)
- fold decrease in affinity (Kd mutant normalized to PSD-95-PDZ2 WT) [1]: 5 fold
- fold loss in affinity (Kd mutant normalized to PSD-95-PDZ2 WT) [2]: 2 fold
- fold loss in affinity (Kd mutant normalized to PSD-95-PDZ2 WT) [3]: 5 fold

Compound: CC[C@H](C)[C@@H]1NC(=O)[C@H]([C@@H](C)O)NC(=O)[C@H](CCCCN)NC(=O)[C@@H]2CCCN2C(=O)[C@H]([C@@H](C)O)NC(=O)CNC(=O)[C@H](CC(=O)O)NC(=O)CNC(=O)[C@H]([C@@H](C)O)NC(=O)[C@H](Cc2ccccc2)NC(=O)[C@H]([C@@H](C)O)NC(=O)[C@H]([C@@H](C)O)NC(=O)[C@H](CCC(=O)O)NC(=O)[C@H](CC(C)C)NC(=O)[C@H](Cc2c[nH]cn2)NC(=O)[C@H]([C@@H](C)O)NC(=O)[C@H](CCC(N)=O)NC(=O)CNC(=O)[C@H]2CCCN2C(=O)[C@H](CCC(N)=O)NC(=O)[C@H]([C@@H](C)O)NC(=O)[C@H](C(C)C)NC(=O)[C@H](CCCNC(=N)N)N(C)C1=O [compound 99]
- half-life at 100 μM [5, 9]: 2.83 h
- Ki [6]: 990 nM

Compound: CC[C@H](C)[C@@H]1NC(=O)[C@H]([C@@H](C)O)NC(=O)[C@H](CCCCN)NC(=O)[C@@H]2CCCN2C(=O)[C@H]([C@@H](C)O)NC(=O)CNC(=O)[C@H](CC(=O)O)NC(=O)CNC(=O)[C@H](Cc2c[nH]c3ccccc23)NC(=O)[C@H](Cc2ccccc2)NC(=O)[C@H]([C@@H](C)O)NC(=O)[C@H]([C@@H](C)O)NC(=O)[C@H](CCC(=O)O)NC(=O)[C@H](CC(C)C)NC(=O)[C@H](Cc2c[nH]cn2)NC(=O)[C@H]([C@@H](C)O)NC(=O)[C@H](CCC(N)=O)NC(=O)CNC(=O)[C@H]2CCCN2C(=O)[C@H](CCC(N)=O)NC(=O)[C@H]([C@@H](C)O)NC(=O)[C@H](C(C)C)NC(=O)[C@H](CCCNC(=N)N)NC1=O [compound 163] (cyclo(THLETTFWGDGTPKTIRVTQ[dP]GQ))
- half-life at 100 μM ([5]; plasmin (isolated protease, 10 μg/mL) in PBS): 1.4 h

Compound: cyclo-(THLETTFTGDGTP(K-CA)TIRVTQpGQ) [SEQ ID NO: 427]
- CP50 [8]: 31.1 ± 2.1 µM

Second part, the compound after the results:

- ΔH [4]: -7.7418 ± 0.6837 kcal/mol
- −ΔS*T [4]: 0.3499 ± 0.3084 kcal/mol
- half-life at 100 μM [5, 9]: 1.18 h
Compound: CC[C@H](C)[C@@H]1NC(=O)[C@H]([C@@H](C)O)NC(=O)[C@H](CCCCN)NC(=O)[C@@H]2CCCN2C(=O)[C@H]([C@@H](C)O)NC(=O)CNC(=O)[C@H](CC(=O)O)NC(=O)CNC(=O)[C@H]([C@@H](C)O)NC(=O)[C@H](Cc2ccccc2)NC(=O)[C@H]([C@@H](C)O)NC(=O)[C@H]([C@@H](C)O)NC(=O)[C@H](CCC(=O)O)NC(=O)[C@H](CC(C)C)NC(=O)[C@H](Cc2c[nH]cn2)NC(=O)[C@H]([C@@H](C)O)NC(=O)[C@H](CCC(N)=O)NC(=O)CNC(=O)[C@H]2CCCN2C(=O)[C@H](CCC(N)=O)NC(=O)[C@H]([C@@H](C)O)NC(=O)[C@H](C(C)C)NC(=O)[C@H](CCCNC(=N)N)NC1=O [compound 12]

- half-life at 100 μM [5, 9]: 6 h
- Ki [6]: 1430 nM
- Relative Ki (Ki mut/Ki WT) ([6]; FP inhibition constant normalized to WT value): 0.95
- Normalized SPOT fluorescence (Mut/WT) [7]: 0.39
Compound: CC[C@H](C)[C@@H]1NC(=O)[C@H]([C@@H](C)O)NC(=O)[C@H](C)NC(=O)[C@@H]2CCCN2C(=O)[C@H]([C@@H](C)O)NC(=O)CNC(=O)[C@H](CC(=O)O)NC(=O)CNC(=O)[C@H]([C@@H](C)O)NC(=O)[C@H](Cc2ccccc2)NC(=O)[C@H]([C@@H](C)O)NC(=O)[C@H]([C@@H](C)O)NC(=O)[C@H](CCC(=O)O)NC(=O)[C@H](CC(C)C)NC(=O)[C@H](Cc2c[nH]cn2)NC(=O)[C@H]([C@@H](C)O)NC(=O)[C@H](CCC(N)=O)NC(=O)CNC(=O)[C@H]2CCCN2C(=O)[C@H](CCC(N)=O)NC(=O)[C@H]([C@@H](C)O)NC(=O)[C@H](C(C)C)NC(=O)[C@H](CCCNC(=N)N)NC1=O [compound 68] (cyclo(THLETTFTGDGTPATIRVTQ[dP]GQ))
